In patent US20120270237A9, “METHODS FOR THE IDENTIFICATION OF KINASE INTERACTING MOLECULES AND FOR THE PURIFICATION OF KINASE PROTEINS” (Cellzone AG, priority 2009, published 2012):

Tests used:
Assay in all cases: Kinobeads competition binding, HL60 cell lysate
Parameters in all cases: endogenous in cells; host or cells: HL60
Conditions in all cases: 10 μM free compound
TYK2 = TYK2 (Homo sapiens, UniProt P29597)
Procedure: (§1) To one aliquot of cell lysate 10 μM of the free compound (FIG. 3, CZC31326) was added and allowed to bind to proteins in the lysate. Then the affinity matrix with the immobilized compound (Example 1) was added to capture proteins that were not interacting with the previously added free compound. Beads were separated from the lysate and bead bound proteins were eluted in SDS sample buffer and subsequently separated by SDS-Polyacrylamide gel electrophoresis (FIG. 4). Suitable gel bands were cut out and subjected to in-gel proteolytic digestion with trypsin. The second lysate aliquot was processed identically, however no free compound was added (DMSO solvent control). Peptides originating from samples 1 and 2 were labeled with iTRAQ reagents (iTRAQ 114 and iTRAQ 117) and the combined samples were analyzed with a nano-flow liquid chromatography system coupled online to a tandem mass spectrometer (LC-MS/MS) experiment followed by iTRAQ reporter ion quantification in the MS/MS spectra (Ross et al., 2004. Mol. Cell. Proteomics 3(12):1154-1169). Further experimental protocols can be found in WO2006/134056 and a previous publication (Bantscheff et al., 2007. Nature Biotechnology 25, 1035-1044). Sepharose-beads with the immobilized compound (100 μl beads per pull-down experiment) were equilibrated in lysis buffer and incubated with a cell lysate sample containing 50 mg of protein on an end-over-end shaker (Roto Shake Genie, Scientific Industries Inc.) for 2 hours at 4° C. Beads were collected, transferred to Mobicol-columns (MoBiTech 10055) and washed with 10 ml lysis buffer containing 0.4% NP40 detergent, followed by 5 ml lysis buffer containing 0.2% detergent. To elute bound proteins, 60 μl 2×SDS sample buffer was added to the column. The column was incubated for 30 minutes at 50° C. and the eluate was transferred to a siliconized microfuge tube by centrifugation. Proteins were then alkylated with 108 mM iodoacetamid. Proteins were then separated by SDS-Polyacrylamide electrophoresis (SDS-PAGE). The peptide extracts of samples treated with 10 μM of free compound (CZC31326) and the solvent control (0.5% DMSO) were treated with different variants of the isobaric tagging reagent (iTRAQ Reagents Multiplex Kit, part number 4352135, Applied Biosystems, Foster City, Calif., USA). The iTRAQ reagents are a set of multiplexed, amine-specific, stable isotope reagents that can label peptides on amino groups in up to four different biological samples enabling simultaneous identification and quantitation of peptides. The iTRAQ reagents were used according to instructions provided by the manufacturer. The samples were resuspended in 10 μl 50 mM TEAB solution, pH 8.5 and 10 μl ethanol were added. The iTRAQ reagent was dissolved in 120 μl ethanol and 10 μl of reagent solution were added to the sample. The labeling reaction was performed at room temperature for one hour on a horizontal shaker and stopped by adding 5 μl of 100 mM TEAB and 100 mM glycine in water. The two labeled sampled were then combined, dried in a vacuum centrifuge and resuspended in 10 μl of 0.1% formic acid in water. Relative protein quantitation was performed using peak areas of iTRAQ reporter ion signals essentially as described in an earlier publication (Bantscheff et al., 2007. Nature Biotechnology 25, 1035-1044).

PKN1 = PKN1 (Homo sapiens, UniProt Q16512)
Sequence of PKN1 (Q16512 whole entry): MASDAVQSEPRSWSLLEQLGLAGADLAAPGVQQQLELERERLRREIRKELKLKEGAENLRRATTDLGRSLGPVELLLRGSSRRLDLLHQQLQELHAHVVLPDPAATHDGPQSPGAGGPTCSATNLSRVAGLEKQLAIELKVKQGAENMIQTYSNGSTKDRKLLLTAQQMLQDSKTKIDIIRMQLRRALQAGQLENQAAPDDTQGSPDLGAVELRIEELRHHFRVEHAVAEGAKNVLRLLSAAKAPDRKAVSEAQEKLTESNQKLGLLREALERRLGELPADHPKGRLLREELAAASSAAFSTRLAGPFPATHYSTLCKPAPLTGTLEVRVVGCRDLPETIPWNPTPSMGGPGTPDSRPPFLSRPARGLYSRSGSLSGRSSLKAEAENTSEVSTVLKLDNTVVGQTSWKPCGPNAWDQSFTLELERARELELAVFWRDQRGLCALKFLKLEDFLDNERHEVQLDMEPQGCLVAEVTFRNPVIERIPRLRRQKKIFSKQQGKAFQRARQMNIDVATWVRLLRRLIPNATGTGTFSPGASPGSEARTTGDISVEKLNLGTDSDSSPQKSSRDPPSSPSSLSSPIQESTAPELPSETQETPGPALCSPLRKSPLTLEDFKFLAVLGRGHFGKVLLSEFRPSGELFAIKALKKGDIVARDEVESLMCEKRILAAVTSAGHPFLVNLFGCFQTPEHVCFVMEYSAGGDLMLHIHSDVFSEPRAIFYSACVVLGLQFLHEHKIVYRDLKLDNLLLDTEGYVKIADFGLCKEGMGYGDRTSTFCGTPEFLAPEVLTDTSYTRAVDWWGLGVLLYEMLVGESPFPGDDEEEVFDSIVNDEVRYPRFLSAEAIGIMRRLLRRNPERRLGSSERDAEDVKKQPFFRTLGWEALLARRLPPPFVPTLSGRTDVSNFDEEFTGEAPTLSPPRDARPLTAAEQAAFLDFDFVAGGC
Procedure: as §1

HIPK2 = HIPK2 (Homo sapiens, UniProt Q9H2X6)
Sequence of HIPK2 (Q9H2X6 whole entry): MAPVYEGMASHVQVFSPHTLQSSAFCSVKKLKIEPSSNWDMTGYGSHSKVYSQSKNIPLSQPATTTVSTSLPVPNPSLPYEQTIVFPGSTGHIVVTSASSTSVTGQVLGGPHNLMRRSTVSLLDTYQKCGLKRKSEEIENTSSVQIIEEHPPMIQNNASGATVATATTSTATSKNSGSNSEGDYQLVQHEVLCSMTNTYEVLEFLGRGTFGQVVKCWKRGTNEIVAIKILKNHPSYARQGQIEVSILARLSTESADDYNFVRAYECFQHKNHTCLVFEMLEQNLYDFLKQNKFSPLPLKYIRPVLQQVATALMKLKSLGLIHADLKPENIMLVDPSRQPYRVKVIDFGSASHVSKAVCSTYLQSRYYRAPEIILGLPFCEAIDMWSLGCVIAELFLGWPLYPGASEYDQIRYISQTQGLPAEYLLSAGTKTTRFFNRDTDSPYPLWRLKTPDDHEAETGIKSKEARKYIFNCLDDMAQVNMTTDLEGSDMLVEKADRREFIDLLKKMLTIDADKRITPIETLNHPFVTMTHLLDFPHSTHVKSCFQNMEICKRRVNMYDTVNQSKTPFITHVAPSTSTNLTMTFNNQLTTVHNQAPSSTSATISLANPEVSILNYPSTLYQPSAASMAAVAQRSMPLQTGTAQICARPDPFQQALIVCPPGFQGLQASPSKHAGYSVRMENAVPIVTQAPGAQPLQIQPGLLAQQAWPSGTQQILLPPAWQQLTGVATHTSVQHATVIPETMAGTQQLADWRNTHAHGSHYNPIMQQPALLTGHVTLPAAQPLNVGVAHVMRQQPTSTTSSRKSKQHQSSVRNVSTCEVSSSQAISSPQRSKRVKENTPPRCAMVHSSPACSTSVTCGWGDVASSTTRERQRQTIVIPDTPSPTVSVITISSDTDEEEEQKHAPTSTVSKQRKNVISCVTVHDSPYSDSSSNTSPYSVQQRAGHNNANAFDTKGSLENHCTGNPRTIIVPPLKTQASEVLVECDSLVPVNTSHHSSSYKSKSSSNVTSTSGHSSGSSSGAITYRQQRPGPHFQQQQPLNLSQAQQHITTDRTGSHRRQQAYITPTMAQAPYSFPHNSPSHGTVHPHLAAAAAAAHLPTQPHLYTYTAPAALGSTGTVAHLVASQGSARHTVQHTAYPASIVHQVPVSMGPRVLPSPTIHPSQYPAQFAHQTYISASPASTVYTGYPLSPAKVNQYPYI
Procedure: as §1

IRAK3 = IRAK3 (Homo sapiens, UniProt Q9Y616)
Sequence of IRAK3 (Q9Y616 whole entry): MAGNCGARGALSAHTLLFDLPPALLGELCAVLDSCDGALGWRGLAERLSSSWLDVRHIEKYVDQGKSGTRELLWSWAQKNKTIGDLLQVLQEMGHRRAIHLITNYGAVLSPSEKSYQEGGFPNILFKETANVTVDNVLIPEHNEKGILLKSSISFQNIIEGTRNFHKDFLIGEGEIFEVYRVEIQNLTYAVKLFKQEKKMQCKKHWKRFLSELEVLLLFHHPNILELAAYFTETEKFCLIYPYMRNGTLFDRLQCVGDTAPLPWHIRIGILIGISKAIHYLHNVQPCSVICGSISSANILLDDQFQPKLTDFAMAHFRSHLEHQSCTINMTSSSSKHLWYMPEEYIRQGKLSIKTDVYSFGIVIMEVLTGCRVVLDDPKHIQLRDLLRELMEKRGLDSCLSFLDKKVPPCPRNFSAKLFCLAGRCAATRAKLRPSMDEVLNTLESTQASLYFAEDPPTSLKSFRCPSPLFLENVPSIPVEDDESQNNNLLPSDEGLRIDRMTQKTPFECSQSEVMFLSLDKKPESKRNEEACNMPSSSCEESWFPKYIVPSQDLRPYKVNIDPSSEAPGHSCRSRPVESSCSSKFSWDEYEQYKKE
Procedure: as §1

GSK3A = GSK3A (Homo sapiens, UniProt P49840)
Sequence of GSK3A (P49840 whole entry): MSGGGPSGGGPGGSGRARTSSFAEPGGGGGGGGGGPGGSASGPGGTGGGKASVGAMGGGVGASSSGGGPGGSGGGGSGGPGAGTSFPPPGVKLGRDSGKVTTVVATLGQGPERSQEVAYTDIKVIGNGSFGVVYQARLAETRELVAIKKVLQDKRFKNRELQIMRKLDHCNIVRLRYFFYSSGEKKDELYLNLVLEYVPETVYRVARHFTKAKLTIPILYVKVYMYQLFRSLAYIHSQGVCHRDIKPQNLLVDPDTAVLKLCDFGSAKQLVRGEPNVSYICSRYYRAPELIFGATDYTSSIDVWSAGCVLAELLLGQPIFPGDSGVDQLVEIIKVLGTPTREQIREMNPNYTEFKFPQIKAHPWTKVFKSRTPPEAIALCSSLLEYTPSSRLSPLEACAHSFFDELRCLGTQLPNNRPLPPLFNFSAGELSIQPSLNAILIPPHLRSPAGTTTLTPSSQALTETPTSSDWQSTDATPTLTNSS
Procedure: as §1

MPSK1 = MPSK1 (Homo sapiens, UniProt O75716)
Sequence of MPSK1 (O75716 whole entry): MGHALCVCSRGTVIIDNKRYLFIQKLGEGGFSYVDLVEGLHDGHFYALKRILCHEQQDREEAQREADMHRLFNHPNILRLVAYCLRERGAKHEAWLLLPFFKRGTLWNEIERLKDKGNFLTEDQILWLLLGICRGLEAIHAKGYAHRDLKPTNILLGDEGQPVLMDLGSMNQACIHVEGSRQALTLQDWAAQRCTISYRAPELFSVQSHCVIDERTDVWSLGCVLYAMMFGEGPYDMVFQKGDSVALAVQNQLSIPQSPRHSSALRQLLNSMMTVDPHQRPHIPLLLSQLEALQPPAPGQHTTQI
Procedure: as §1

PKD2 = target: T1, PKD2 (Homo sapiens, UniProt Q9BZL6)
T1 sequence (Q9BZL6 1-878): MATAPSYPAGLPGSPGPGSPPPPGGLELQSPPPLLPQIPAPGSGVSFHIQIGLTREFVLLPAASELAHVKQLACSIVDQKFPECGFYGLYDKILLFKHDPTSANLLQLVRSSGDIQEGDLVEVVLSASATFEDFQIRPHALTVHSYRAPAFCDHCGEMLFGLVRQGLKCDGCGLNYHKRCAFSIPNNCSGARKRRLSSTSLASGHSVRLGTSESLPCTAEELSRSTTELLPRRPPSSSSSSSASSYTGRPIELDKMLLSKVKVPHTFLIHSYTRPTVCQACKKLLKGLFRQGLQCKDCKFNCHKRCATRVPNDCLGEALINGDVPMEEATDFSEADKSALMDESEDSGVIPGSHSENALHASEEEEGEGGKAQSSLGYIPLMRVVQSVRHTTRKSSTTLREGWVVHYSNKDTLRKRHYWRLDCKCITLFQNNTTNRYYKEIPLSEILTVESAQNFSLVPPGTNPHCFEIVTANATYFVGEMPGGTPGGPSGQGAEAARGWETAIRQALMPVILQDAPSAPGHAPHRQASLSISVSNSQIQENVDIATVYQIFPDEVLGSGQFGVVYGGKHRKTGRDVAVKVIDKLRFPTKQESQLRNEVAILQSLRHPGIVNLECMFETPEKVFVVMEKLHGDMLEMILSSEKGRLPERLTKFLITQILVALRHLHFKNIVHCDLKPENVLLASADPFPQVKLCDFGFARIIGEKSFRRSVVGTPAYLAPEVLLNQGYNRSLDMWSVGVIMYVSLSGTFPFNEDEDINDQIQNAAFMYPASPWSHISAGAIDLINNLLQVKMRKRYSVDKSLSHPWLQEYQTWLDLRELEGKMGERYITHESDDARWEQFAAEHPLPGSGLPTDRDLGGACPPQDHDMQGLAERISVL
Procedure: as §1

Sequence of TYK2 (P29597 whole entry): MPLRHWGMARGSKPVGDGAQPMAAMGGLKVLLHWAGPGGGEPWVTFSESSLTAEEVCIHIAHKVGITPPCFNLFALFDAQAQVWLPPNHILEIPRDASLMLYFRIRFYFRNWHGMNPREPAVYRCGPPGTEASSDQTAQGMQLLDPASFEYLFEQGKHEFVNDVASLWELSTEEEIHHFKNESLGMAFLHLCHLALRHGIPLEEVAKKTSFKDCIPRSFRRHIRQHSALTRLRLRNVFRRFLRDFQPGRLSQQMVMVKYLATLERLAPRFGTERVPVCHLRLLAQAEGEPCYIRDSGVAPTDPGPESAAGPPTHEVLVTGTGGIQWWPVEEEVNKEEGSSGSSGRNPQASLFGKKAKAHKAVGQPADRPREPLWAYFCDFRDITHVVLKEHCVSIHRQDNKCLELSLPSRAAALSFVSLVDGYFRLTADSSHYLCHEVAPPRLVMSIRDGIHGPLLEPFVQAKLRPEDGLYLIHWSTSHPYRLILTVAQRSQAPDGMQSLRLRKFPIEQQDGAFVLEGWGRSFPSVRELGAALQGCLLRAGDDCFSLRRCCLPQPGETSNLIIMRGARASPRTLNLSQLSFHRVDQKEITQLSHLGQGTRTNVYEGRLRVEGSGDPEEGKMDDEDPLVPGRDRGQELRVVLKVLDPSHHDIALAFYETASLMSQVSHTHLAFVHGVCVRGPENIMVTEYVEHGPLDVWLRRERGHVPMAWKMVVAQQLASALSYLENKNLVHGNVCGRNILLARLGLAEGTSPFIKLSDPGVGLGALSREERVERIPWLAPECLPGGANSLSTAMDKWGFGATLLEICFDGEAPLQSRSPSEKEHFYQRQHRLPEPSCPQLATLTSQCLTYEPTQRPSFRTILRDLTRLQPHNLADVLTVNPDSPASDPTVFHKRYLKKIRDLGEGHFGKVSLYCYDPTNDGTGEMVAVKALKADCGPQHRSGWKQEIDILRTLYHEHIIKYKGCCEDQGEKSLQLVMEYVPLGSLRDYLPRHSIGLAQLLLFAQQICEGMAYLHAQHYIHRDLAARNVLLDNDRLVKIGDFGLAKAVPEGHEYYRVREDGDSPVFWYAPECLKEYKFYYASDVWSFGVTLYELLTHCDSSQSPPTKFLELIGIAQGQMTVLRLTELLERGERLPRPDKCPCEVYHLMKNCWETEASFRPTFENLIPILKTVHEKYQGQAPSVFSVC

Competition % (TYK2): 97.1% | inhibition at 10 µM (PKN1): 97% | inhibition at 10 µM (HIPK2): 94.4% | inhibition at 10 µM (IRAK3): 97.2% | inhibition at 10 µM (GSK3A): 96.2% | inhibition at 10 µM (MPSK1): 93.4% | inhibition at 10 µM (PKD2): 97.9%
Compound: CS(=O)(=O)Nc1ccccc1Nc1nc(Nc2cccc(OCCN)c2)ncc1Cl [CZC31326, N-(2-(2-(3-(2-aminoethoxy)phenylamino)-5-chloropyrimidin-4-ylamino)phenyl)methanesulfonamide]
